Results: ChEMBL document CHEMBL3132769, “Fragment growing to retain or alter the selectivity of anchored kinase hinge-binding fragments” (Medchemcomm, 2014)

Experiments:
[1] = molecular target: T1, Mitogen-activated protein kinase 13 (Homo sapiens) (UniProt O15264); test: Inhibition of human full length p38 delta expressed in Escherichia coli cell assessed as substrate phosphorylation using fluorescence-labelled peptides as substrate at 420 uM after 90 mins by microfluidic peptide phosphorylation assay
T1 sequence (whole entry): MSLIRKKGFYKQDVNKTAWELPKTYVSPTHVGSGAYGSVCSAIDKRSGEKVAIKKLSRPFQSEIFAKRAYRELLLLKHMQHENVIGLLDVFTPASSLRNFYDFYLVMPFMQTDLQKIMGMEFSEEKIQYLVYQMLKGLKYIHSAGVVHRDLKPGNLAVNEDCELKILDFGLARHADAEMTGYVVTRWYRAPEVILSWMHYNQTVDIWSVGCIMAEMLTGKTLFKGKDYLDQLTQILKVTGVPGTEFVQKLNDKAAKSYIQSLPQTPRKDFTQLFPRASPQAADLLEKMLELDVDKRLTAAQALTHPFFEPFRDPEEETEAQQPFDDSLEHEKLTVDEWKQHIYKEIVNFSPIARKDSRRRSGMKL

[2] = molecular target: Mitogen-activated protein kinase 14 (Homo sapiens) (UniProt Q16539); test: Inhibition of human truncated p38 alpha expressed in Escherichia coli cell assessed as substrate phosphorylation using fluorescence-labelled peptides as substrate at 420 uM after 90 mins by microfluidic peptide phosphorylation assay
Sequence of Mitogen-activated protein kinase 14 (Homo sapiens) (Q16539 whole entry, the tested form may be a part): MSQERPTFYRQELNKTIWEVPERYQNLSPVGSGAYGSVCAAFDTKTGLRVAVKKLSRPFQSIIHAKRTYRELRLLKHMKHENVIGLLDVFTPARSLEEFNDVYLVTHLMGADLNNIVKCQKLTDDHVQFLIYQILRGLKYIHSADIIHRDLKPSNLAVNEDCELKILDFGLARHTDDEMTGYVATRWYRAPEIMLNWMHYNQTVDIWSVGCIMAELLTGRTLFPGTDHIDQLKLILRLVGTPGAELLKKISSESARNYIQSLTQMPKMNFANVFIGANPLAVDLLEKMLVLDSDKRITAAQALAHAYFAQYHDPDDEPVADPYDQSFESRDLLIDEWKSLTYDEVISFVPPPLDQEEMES

[3] = molecular target: T2, Testis-specific serine/threonine-protein kinase 1 (Homo sapiens) (UniProt Q9BXA7); test: Inhibition of human full length TSSK1 expressed in baculovirus assessed as substrate phosphorylation using fluorescence-labelled peptides as substrate at 95 uM after 90 mins by microfluidic peptide phosphorylation assay
T2 sequence (whole entry): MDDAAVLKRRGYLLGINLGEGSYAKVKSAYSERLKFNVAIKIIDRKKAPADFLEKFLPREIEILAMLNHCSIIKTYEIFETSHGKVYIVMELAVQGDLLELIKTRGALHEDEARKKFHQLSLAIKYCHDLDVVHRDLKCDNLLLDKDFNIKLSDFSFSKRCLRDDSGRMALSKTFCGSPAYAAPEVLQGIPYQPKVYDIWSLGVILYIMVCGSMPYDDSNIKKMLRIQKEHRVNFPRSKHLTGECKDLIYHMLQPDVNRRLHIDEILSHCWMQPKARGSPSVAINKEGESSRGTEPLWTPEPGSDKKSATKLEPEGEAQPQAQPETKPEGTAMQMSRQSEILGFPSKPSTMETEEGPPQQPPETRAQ

[4] = system: Tyrosine-protein kinase ABL1 (Homo sapiens), P00519 [H396P]; test: Inhibition of human truncated ABL H396P mutant expressed in baculovirus assessed as substrate phosphorylation using fluorescence-labelled peptides as substrate at 95 uM after 90 mins by microfluidic peptide phosphorylation assay
[5] = molecular target: T3, Serine/threonine-protein kinase D2 (Homo sapiens) (UniProt Q9BZL6); test: Inhibition of human full length PKD2 expressed in baculovirus assessed as substrate phosphorylation using fluorescence-labelled peptides as substrate at 95 uM after 90 mins by microfluidic peptide phosphorylation assay
T3 sequence (whole entry): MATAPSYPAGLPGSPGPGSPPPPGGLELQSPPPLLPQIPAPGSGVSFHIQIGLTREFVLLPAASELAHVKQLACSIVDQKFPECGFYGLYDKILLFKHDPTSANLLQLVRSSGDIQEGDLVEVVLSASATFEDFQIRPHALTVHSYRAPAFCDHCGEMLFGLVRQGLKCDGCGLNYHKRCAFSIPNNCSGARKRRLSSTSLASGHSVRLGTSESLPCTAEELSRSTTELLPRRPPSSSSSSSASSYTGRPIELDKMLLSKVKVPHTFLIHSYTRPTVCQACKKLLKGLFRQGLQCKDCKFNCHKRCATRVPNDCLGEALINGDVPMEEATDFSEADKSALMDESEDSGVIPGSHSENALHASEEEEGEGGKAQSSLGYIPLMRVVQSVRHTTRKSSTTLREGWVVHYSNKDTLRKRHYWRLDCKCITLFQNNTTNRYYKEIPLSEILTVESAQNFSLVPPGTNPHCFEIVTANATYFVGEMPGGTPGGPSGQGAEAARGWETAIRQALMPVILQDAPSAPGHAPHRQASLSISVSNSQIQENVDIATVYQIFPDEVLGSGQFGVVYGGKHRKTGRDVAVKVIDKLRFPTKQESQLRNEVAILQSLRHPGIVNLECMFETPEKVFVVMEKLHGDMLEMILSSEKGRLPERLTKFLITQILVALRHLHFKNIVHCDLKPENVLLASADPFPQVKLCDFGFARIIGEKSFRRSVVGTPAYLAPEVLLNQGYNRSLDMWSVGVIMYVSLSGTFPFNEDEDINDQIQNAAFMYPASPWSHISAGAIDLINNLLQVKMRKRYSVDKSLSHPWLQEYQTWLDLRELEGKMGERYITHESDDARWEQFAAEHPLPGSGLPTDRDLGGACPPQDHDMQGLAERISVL

[6] = molecular target: T4, Protein kinase C zeta type (Homo sapiens) (UniProt Q05513); test: Inhibition of human full length PKC zeta expressed in baculovirus assessed as substrate phosphorylation using fluorescence-labelled peptides as substrate at 1000 uM after 90 mins by microfluidic peptide phosphorylation assay
T4 sequence (whole entry): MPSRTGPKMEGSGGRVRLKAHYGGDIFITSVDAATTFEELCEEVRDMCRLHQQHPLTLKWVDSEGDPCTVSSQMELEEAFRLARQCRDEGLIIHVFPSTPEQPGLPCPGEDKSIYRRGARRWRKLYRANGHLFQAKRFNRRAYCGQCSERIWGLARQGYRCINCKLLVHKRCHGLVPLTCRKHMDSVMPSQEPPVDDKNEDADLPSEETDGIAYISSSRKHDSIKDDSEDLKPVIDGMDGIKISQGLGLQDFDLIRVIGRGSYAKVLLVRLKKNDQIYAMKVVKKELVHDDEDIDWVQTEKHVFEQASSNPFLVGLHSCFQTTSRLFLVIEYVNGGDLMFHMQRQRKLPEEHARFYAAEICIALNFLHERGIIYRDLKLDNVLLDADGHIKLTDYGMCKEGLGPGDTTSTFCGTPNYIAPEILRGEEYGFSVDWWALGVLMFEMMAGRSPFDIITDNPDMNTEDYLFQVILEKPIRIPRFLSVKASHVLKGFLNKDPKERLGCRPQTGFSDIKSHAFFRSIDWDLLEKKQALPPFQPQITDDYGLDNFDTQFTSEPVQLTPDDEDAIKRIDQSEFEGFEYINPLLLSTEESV

**Q.** With `c1nc(N2CCOCC2)c2nc[nH]c2n1` as the compound, how does the inhibition [1] read?
**A.** 34%

**Q.** What about the inhibition [2] of the same compound?
**A.** 0%

**Q.** For `NCCc1ccc(-c2ncnc3[nH]cnc23)cc1`, which inhibition [3] is on record?
**A.** 89%

**Q.** What about the inhibition [4] of the same compound?
**A.** 69.5%

**Q.** And the inhibition [5]?
**A.** 77.5%

**Q.** `c1cnc2[nH]ccc2c1` was tested. Which inhibition [6] did it give?
**A.** 31.5%
